Reference: PMC10974290, “Biocatalytic Synthesis of Coumarin S-Glycosides: Towards Non-Cytotoxic Probes for Biomedical Imaging and Sensing” (Molecules, 2024)
Marks after values point to notes of the source that are not given here.

Key:
[1] = Fluorescence excitation/emission spectroscopy and relative quantum yield; assay type: physicochemical; conditions: 7-MC in presence of 10 mM DTT; for Fluorescence λmax ex: emission at 420 nm; for Fluorescence λmax em: excitation at 280 nm
Method: The values determined were close to those observed for the 4-MUB fluorophore.
Both absorbance and fluorescence spectra were measured on a Tecan […] M PLEX 200 Pro plate reader equipped with monochromator allowing a scan from 230 to 1000 nm. […] The solutions were then transferred to a Corning (Corning, NY, USA) UV-transparent 96-well plate. Absorbance spectra were recorded from 230 to 800 nm. Emission fluorescence spectra were recorded from 320 to 800 nm, under excitation at 280 nm. Excitation fluorescence spectra were recorded from 230 to 380 nm for an emission at 420 nm. All spectra were recorded with a wavelength step size of 2 nm. Data processing was performed with Excel software 2016. Fluorescence spectra are presented as normalized spectra ranging from 0 to 1. The relative quantum yields were calculated according to Equation (1):(1) ΦT=(AR/AT)×(FT/FR)×(nT/nR)×ΦR where Φ is the fluorescence quantum yield, A is the absorbance at the excitation wavelength, F is the area under the corrected emission curve, and n is the refractive index of the solvent for the test compound (T) and the reference (R). The 4-MUB value in DMF was used as the reference. The LOD (resp. LOQ) values were determined as the minimal concentration of product S-3 required to yield a fluorescence that was twice greater than (respectively, 5-times that of) the fluorescence noise on a sample containing PBS, using an excitation wavelength of 280 nm and an emission wavelength of 386 nm (Figure S44).

[2] = parameters: method as in doi:10.1016/1010-6030(89)87054-6; conditions: DMF; ref [50]; cited from earlier work
[3] = UV-visible absorbance spectroscopy; assay type: physicochemical; conditions: 0.1 mM
Method: Subsequently, the analysis was carried out under two distinct conditions: firstly, in DMF, at a final concentration of 0.1 mM; and secondly, in a mixture PBS:DMF (99:1%), at the same final concentration of 0.1 mM. These two experimental setups provided valuable insights into the spectral characteristics of the compounds in both a pure organic solvent and a solvent system closely resembling physiological conditions. The maxima absorption wavelengths are compiled in Table 3. These bands were attributed to transitions within the benzene and pyrone moieties, considered together as a single chromophore. […] Similarly, 7-MC and S-1 to S-6 compounds also absorb in this UV range (λmax = 328–330 nm). […] In the organic solvent, these values are found to be higher compared to those calculated for 4-MUB and 7-MC. Conversely, in PBS, the extinction coefficients for S-glycosides are lower compared to the parent thiol 7-MC. This highlights the profound impact of glycosylation on absorption properties, as well as the importance of solvent choice.
Both absorbance and fluorescence spectra were measured on a Tecan […] M PLEX 200 Pro plate reader equipped with monochromator allowing a scan from 230 to 1000 nm. All synthesized molecules were initially dissolved in 10 mM DMF and subsequently diluted in freshly prepared PBS (pH = 7.4) to achieve a final concentration of 0.1 mM. The solutions were then transferred to a Corning (Corning, NY, USA) UV-transparent 96-well plate. Absorbance spectra were recorded from 230 to 800 nm. Emission fluorescence spectra were recorded from 320 to 800 nm, under excitation at 280 nm. Excitation fluorescence spectra were recorded from 230 to 380 nm for an emission at 420 nm. All spectra were recorded with a wavelength step size of 2 nm. Data processing was performed with Excel software 2016. Fluorescence spectra are presented as normalized spectra ranging from 0 to 1. The relative quantum yields were calculated according to Equation (1):(1) ΦT=(AR/AT)×(FT/FR)×[…]×ΦR where Φ is the fluorescence quantum yield, A is the absorbance at the excitation wavelength, F is the area under the corrected emission curve, and n is the refractive index of the solvent for the test compound (T) and the reference (R). The 4-MUB value in DMF was used as the reference. The LOD (resp. LOQ) values were determined as the minimal concentration of product S-3 required to yield a fluorescence that was twice greater than (respectively, 5-times that of) the fluorescence noise on a sample containing PBS, using an excitation wavelength of 280 nm and an emission wavelength of 386 nm (Figure S44).

[4] = system: MCF-7 (breast adenocarcinoma); assay: MTT cell proliferation assay, MCF-7; assay type: cell-based; conditions: Homo sapiens, MCF7, 72 h incubation, 95% confidence interval in parentheses
Method: (§1) To use these S-glycosidic compounds in cellulo, the potential impact of the glycosidic linkage nature on the anticancer activity was assessed. The S-glycoside derivatives and the 7-MC were tested against four human cancer cell lines and a healthy one, namely A549 (lung carcinoma), HS-683 (glioma cancer), MCF-7 (breast adenocarcinoma), SK-MEL-28 (melanoma skin cancer), and HaCaT (keratinocyte normal skin), using MTT (thiazolyl blue tetrazolium bromide, Sigma-Aldrich, St. Louis, MO, USA) assay, as previously described in the literature. The selected reference drugs were 5-fluorouracil (5-FU) and etoposide.
(§2) Cell proliferation of five distinct cell lines was evaluated using the colorimetric MTT (thiazolyl blue tetrazolium bromide, Sigma) assay. Human keratinocyte normal skin HaCaT was cultivated in DMEM supplemented with 4.5 g/L glucose, 2 mM L-glutamine, and 10% FBS. Cancer cell lines and their respective growth media were obtained from CLS Cell Line Service GmbH (Eppelheim, Germany). Specifically, human skin melanoma SK-MEL-28 and human brain glioma HS683 were cultivated in DMEM with identical supplements as HaCaT cells. The human lung carcinoma cell line A-549 was grown in DMEM/Ham’s F12 (1:1) medium supplemented with 2 mM L-glutamine and 5% FBS. Additionally, human breast adenoma carcinoma MCF-7 cells were sustained in EMEM supplemented with 2 mM L-glutamine, sodium pyruvate, non-essential amino acids (NEAAs), 10 µg/mL insulin human, and 10% FBS. The MTT assay relies on the reduction of the yellow product thiazolyl blue tetrazolium bromide (MTT) to formazan, a purple-blue product, by mitochondrial dehydrogenases in metabolically active cells. The number of living cells after incubation in the presence (or absence, control) of the tested molecules is directly proportional to the blue color, which was measured by spectrophotometry. To perform the assay, cells were initially seeded at a density of 2500 cells/mL in 96-well culture plates (Nunc™ Edge 2.0, Fisher) and allowed to adhere and proliferate over a 24-hour incubation period. Following this, the cells were treated with various concentrations of the tested compounds, which were previously prepared as serial dilutions and dissolved in 0.1% DMSO. These stable solutions guarantee the consistency of experimental conditions over extended periods. Each concentration of the tested compounds underwent triplicate testing (n = 3), and cells were subsequently incubated for 72 h to allow for thorough evaluation. Following this incubation period, MTT reagent (5 mg/mL solution in PBS) was introduced to each well (10% v/v), and cells were further incubated for 4 h. Then, the culture medium was carefully removed, and the resulting blue formazan crystals were dissolved in 100 µL of 100% DMSO. Absorbance readings were taken at 540 nm, referencing a wavelength of 620 nm, using a spectrophotometer. In determining the IC50, the absorbance of serial dilutions of each cell line, treated under identical conditions but without the presence of the tested compounds, was measured.

[5] = system: HaCaT (keratinocyte normal skin); assay: MTT cell proliferation assay, HaCaT; assay type: cell-based; conditions: Homo sapiens, 72 h incubation, 95% confidence interval in parentheses
Method: as §1, §2

[6] = system: HS683 (brain glioma); assay: MTT cell proliferation assay, HS683; assay type: cell-based; conditions: Homo sapiens, Hs 683, 72 h incubation, 95% confidence interval in parentheses
Method: as §1, §2

[7] = system: SK-MEL-28 (melanoma skin cancer); assay: MTT cell proliferation assay, SK-MEL-28; assay type: cell-based; conditions: Homo sapiens, 72 h incubation, 95% confidence interval in parentheses
Method: as §1, §2

[8] = system: A-549 (lung carcinoma); assay: MTT cell proliferation assay, A-549; assay type: cell-based, human; conditions: Homo sapiens, A549, 72 h, 72 h incubation, 95% confidence interval in parentheses
Method: as §1, with “literature.” for “literature. The selected reference drugs were 5-fluorouracil (5-FU) and etoposide.”
as §2, with “These stable solutions guarantee the consistency of experimental conditions over extended periods.” left out

[9] = DMF, 7-MC in presence of 10 mM DTT

| Fluorescence λmax ex ([1]; DMF, 0.1 mM) | Fluorescence λmax em ([1]; DMF, 0.1 mM) | Fluorescence λmax ex ([1]; PBS pH 7.4, 0.1 mM) | Fluorescence λmax em ([1]; PBS pH 7.4, 0.1 mM) | Relative quantum yield Φ ([1]; PBS, relative to 4-MUB in DMF) | Absorbance ε (molar absorption coefficient) [3, 9] | Absorbance λmax abs [3, 9] | emax (molar absorption coefficient) ([3]; PBS 1x (pH = 7.4), 7-MC + DTT 10 mM) | Absorbance λmax abs ([3]; PBS (PBS:DMF 99:1, pH 7.4), 7-MC in presence of 10 mM DTT) | IC50 [4] | IC50 [6] | IC50 [7] | IC50 [8] | SMILES | Quantum yield Φ (reference value) [2] | IC50 [5] |
| --- | --- | --- | --- | --- | --- | --- | --- | --- | --- | --- | --- | --- | --- | --- | --- |
| 320 nm | 380 nm | 333 nm | 448 nm | 0.293 | 17.0 10^3 M^−1 cm^−1 | 322 nm | 20129,15057 cm-1 M-1 | 324 nm | – | – | – | – | Cc1cc(=O)oc2cc(O)ccc12 [Compound 4-MUB, 4-methylumbelliferone, reference compound] | 0.081 ^a | – |
| – | – | – | – | – | – | – | – | – | 4.8 µM | 37 µM | 6.6 µM | – | O=c1[nH]cc(F)c(=O)[nH]1 [Compound 5-FU, 5-fluorouracil, reference compound] | – | 0.4 µM |
| – | – | – | – | – | – | – | – | – | 3.9 µM | 1.6 µM | 3.2 µM | 1.6 µM | COc1cc([C@@H]2c3cc4c(cc3[C@@H](O[C@@H]3O[C@@H]5CO[C@@H](C)O[C@H]5[C@H](O)[C@H]3O)[C@H]3COC(=O)[C@H]23)OCO4)cc(OC)c1O [Etoposide, etoposide, reference compound] | – | 0.5 µM |
